Where a name gives a salt, the structure may show the parent alone.
Experiments:
[1] = molecular target: T1, 5-HT1A receptors (Rattus norvegicus, UniProt P19327); test: inhibition of [3H]8-OH-DPAT binding to 5-HT1A receptors in vitro; set-up: species or system rat (male Sprague-Dawley, hippocampal tissue); conditions: rat hippocampus, [3H]8-OH-DPAT 2 nM, 25° C., 30 min
T1 sequence (P19327 1-422): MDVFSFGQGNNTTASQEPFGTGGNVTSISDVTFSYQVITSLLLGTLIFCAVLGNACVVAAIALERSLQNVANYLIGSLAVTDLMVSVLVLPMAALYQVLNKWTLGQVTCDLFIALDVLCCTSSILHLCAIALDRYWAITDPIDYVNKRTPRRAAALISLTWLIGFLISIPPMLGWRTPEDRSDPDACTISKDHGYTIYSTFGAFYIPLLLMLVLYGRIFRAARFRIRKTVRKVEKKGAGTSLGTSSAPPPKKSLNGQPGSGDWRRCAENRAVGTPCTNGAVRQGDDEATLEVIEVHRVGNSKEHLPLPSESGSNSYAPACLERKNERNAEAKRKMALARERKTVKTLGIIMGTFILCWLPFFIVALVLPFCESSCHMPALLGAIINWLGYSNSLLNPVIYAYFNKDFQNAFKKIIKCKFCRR
Protocol: Hippocampal tissue from the brains of male Sprague-Dawley rats (Charles River; weight range 150-250 g) was homogenised in ice-cold 50 mM Tris-HCl buffer (pH 7.7 when measured at 25° C., 1:40 w/v) and centrifuged at 30,000 g at 4° C. for 10 minutes. The pellet was rehomogenised in the same buffer, incubated at 37° C. for 10 minutes and centrifuged at 30,000 g at 4° C. for 10 minutes. The final pellet was resuspended in 50 mM Tris-HCl buffer (pH 7.7) containing 4 mM CaCl2. 0.1% L-ascorbic acid and 10 μM pargyline hydrochloride (equivalent to 6.25 mg wet weight of tissue/ml) and used immediately in the binding assay. Aliquots (400 μl; equivalent to 2.5 mg wet weight of tissue/tube) of this suspension were added to tubes containing the ligand (50 μl; 2 nM) and distilled water (50 μl; total binding) or 5-HT (50 μl; 10 μM; non-specific binding) or test compound (50 μl; at a single concentration of 10^-6 M or at 10 concentrations ranging from 10^-11 -10^-3 M). The ligand was [^3 H]8-hydroxy-2-(dipropylamino)tetralin ([^3 H]8-OH-DPAT) and the mixture was incubated at 25° C. for 30 minutes before the incubation was terminated by rapid filtration.

[2] = molecular target: T2, α2D-adrenoceptors (Rattus norvegicus, UniProt P22909); test: inhibition of tritiated idazoxan binding to α2D-adrenoceptors in vitro; set-up: species or system rat (male Charles River CD, frontal cortical tissue); conditions: rat frontal cortex; for Ki: [3H]idazoxan 1 nM, 0° C., 75 min
T2 sequence (P22909 1-465): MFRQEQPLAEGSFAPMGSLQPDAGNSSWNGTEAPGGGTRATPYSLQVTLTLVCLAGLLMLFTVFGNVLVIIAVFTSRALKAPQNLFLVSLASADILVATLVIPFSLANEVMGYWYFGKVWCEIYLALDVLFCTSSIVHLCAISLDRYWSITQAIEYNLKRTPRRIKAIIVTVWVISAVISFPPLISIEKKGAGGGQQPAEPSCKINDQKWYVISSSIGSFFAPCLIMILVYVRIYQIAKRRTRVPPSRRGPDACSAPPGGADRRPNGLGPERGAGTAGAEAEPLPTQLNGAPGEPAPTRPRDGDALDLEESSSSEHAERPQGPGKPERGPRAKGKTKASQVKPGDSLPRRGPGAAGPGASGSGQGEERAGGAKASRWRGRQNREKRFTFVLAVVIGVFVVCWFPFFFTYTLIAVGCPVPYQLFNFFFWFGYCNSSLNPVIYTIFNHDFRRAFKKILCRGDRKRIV

[3] = molecular target: D2 dopamine receptors (Rattus norvegicus, UniProt P61169); test: inhibition of tritiated (S)-sulpiride binding to D2 dopamine receptors in vitro; set-up: species or system rat (male Charles River CD, striatal tissue); conditions: rat striatum, tritiated (S)-sulpiride 1 nM, 4° C., 40 min
[4] = molecular target: T3, α2A-adrenoceptors (Homo sapiens, UniProt P08913); test: inhibition of tritiated RX 821002 binding to α2A-adrenoceptors in vitro; set-up: species or system human (cerebral cortex post-mortem); conditions: human cerebral cortex; for Ki: [3H]RX 821002 0.2 nM, 0° C., 75 min; for inhibition at 1 µM: 10^-6 M, [3H]RX 821002, read-out: % displacement at 10^-6 M, α2A
T3 construct: Human cerebral cortex obtained at post-mortem; from tissue; host or cells: human cerebral cortex, post-mortem
T3 sequence (P08913 1-465): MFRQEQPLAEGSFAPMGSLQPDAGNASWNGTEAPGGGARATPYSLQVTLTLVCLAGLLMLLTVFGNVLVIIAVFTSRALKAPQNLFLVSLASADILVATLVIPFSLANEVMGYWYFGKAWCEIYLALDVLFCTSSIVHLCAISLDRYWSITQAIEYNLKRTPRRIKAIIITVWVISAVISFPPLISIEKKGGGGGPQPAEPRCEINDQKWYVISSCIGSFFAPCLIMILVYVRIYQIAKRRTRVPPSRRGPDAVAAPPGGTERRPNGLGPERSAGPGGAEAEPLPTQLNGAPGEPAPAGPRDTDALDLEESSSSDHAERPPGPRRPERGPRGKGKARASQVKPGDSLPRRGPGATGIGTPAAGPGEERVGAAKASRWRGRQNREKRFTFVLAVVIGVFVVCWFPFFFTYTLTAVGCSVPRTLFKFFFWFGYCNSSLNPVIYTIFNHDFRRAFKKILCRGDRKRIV
Protocol: Human cerebral cortex obtained at post-mortem was homogenised in ice-cold 0.25M sucrose (1:30 w/v) and centrifuged at 1,000 g at 4° C. for 12 minutes. The supernatant was stored on ice and the pellet was rehomogenised in 0.25M sucrose (1:15 w/v) and centrifuged at 850 g at 4° C. for 12 minutes. Combined supernatants were diluted with 5 mM Tris-HCl (pH 7.5) containing 5 mM ethylenediamine tetraacetic acid (EDTA), readjusted to pH 7.5 (at 25° C.) with 1M sodium hydroxide to 1:80 w/v, and centrifuged at 11,000 g at 4° C. for 10 minutes. The resulting pellet was resuspended in 50 mM Tris-HCl (pH 7.5) containing 5.68 mM L-ascorbic acid and 0.5 mM EDTA, readjusted to pH 7.5 (at 25° C.) with 1M sodium hydroxide to 1:80 w/v, and centrifuged at 11,000 g for 10 minutes. The pellet was stored at -80° C. On the day of the assay the pellet was thawed, resuspended in 50 mM Tris-HCl (pH 7.5) containing 5.68 mM L-ascorbic acid and 5 mM EDTA to 1:80 w/v and centrifuged at 11,000 g for 10 minutes. The final pellet was resuspended in 50 mM Tris-HCl (pH 7.5) containing 5.68 mM L-ascorbic acid and 5 mM EDTA (equivalent to 25 mg wet weight of tissue/ml).
Aliquots (400 μl; equivalent to 10 mg wet weight of tissue/tube) of this suspension were added to tubes containing the ligand (50 μl; 0.2 nM) and distilled water (50 μl; total binding) or phentolamine (50 μl; 50 μM; non-specific binding) or test compound (50 μl; at a single concentration of 10^-6 M or at 10 concentrations ranging from 10^-11 -10^-3 M). The ligand was tritiated RX 821002 (2-(2-methoxy-1,4-[6,7(n)-^3 H]benzodioxan-2-yl)-2-imidazoline) and the mixture was incubated at 0° C. for 75 minutes before the incubation was terminated by rapid filtration.
The filters were washed with ice-cold Tris-HCl buffer and dried. The filters were punched out into vials, scintillation fluid added and radioactivity determined by liquid scintillation counting. The percentage displacement of specific binding of the tritiated ligand was calculated for the single concentration (10^-6 M) of test compound. Displacement curves were then produced for those compounds which displaced ≥50% of specific binding of the tritiated ligand at 10^-6 M using a range of concentrations of the compound. The concentration which gave 50% inhibition of specific binding (IC50) was obtained from the curve. The inhibition coefficient Ki was then calculated using the formula [formula] in which [ligand] is the concentration of the tritiated ligand used and KD is the equilibrium dissociation constant for the ligand.

[5] = molecular target: α1-adrenoceptors; test: inhibition of 7-methoxy-[3H]prazosin binding to α1-adrenoceptors in vitro; set-up: species or system rat (male Charles River CD, whole cortical tissue); conditions: rat whole cortex, 30 min; for Ki: 7-methoxy-[3H]prazosin 0.1 nM, 30° C.
Protocol: Whole cortical tissue from the brains of male Charles River CD rats weighing between 150-250 g were homogenised in ice-cold 50 mM Tris-HCl, pH 7.6 (at 25° C.; 1:40 w/v) and centrifuged at 1000 g at 4° C. for 10 minutes. The supernatant was centrifuged at 30,000 g at 4° C. for 10 minutes. The pellet was rehomogenised in 50 mM Tris-HCl, pH 7.6 (1:40 w/v) and centrifuged at 30,000 g at 4° C. for 10 minutes. The final pellet was resuspended in 50 mM Tris-HCl, pH 7.6 (equivalent to 12.5 mg wet weight of tissue/ml) and used immediately in the binding assay. Aliquots (400 μl; equivalent to 5 mg wet weight of tissue/tube) of this suspension were added to tubes containing the ligand (50 μl; 0.1 nM) and distilled water (50 μl; total binding) or phentolamine (50 μl; 5 μM; non-specific binding) or test compound (50 μl; at a single concentration of 10^-6 M or at 10 concentrations ranging from 10^-11 -10^-3 M). The ligand was 7-methoxy-[^3 H]prazosin and the mixture was incubated at 30° C. for 30 minutes before the incubation was terminated by rapid filtration. The filters were washed with ice-cold Tris-HCl buffer and dried. The filters were punched out into vials, scintillation fluid added and radioactivity determined by liquid scintillation counting. The percentage displacement of specific binding of the tritiated ligand was calculated for the single concentration (10^-6 M) of test compound. […] The concentration which gave 50% inhibition of specific binding (IC50) was obtained from the curve. The inhibition coefficient Ki was then calculated using the formula [formula] in which [ligand] is the concentration of the tritiated ligand used and KD is the equilibrium dissociation constant for the ligand.

Sequence of D2 dopamine receptors (P61169 whole entry): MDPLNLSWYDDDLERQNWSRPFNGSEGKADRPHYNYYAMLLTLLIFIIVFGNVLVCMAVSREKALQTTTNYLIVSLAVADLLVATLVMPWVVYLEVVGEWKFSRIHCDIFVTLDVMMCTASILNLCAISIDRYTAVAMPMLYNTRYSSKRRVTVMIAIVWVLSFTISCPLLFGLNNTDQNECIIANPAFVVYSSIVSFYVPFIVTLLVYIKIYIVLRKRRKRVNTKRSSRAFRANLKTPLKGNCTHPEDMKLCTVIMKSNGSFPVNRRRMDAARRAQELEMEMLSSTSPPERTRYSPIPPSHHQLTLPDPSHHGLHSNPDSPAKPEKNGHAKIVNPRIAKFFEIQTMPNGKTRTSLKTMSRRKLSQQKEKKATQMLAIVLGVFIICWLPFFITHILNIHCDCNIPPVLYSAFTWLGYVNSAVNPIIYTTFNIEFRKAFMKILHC

Row | Ki [1] [nM] | Ki [2] [nM] | Ki [3] [nM] | Ki [4] [nM] | Ki [5] [nM] | inhibition at 1 µM ([2]; 10^-6 M, [3H]idazoxan, read-out: % displacement at 10^-6 M, α2D) [%] | inhibition at 1 µM [4] [%] | % displacement at 10^-6 M, α1 ([5]; 10^-6 M, 7-methoxy-[3H]prazosin, 1 µM) [%] | Ki ([5]; hydrochloride) [nM] | Structure (SMILES)
1 | > 500 | – | > 500 | – | – | 56 | 98 | 89 | – | Cc1ccccc1N1CCN(Cc2c(N)n(C)n(-c3ccccc3)c2=O)CC1 [Example 3, 3-Amino-2-methyl-4-[4-(2-methylphenyl)piperazin-1-ylmethyl]-1-phenyl-3-pyrazolin-5-one]
2 | 39 | > 500 | 112 | – | 186 | – | 82 | – | – | Cn1c(N)c(CN2CCN(c3cccc4ccccc34)CC2)c(=O)n1-c1ccccc1 [Example 4, 3-Amino-2-methyl-4-[4-(1-naphthyl)piperazin-1-ylmethyl]-1-phenyl-3-pyrazolin-5-one]
3 | 24 | 165 | 177 | – | 19 | – | 91 | – | – | Cn1c(N)c(CN2CCN(c3cccc4ccoc34)CC2)c(=O)n1-c1ccccc1 [Example 7, 3-Amino-4-[4-(7-benzo[b]furanyl)piperazin-1-ylmethyl]-2-methyl-1-phenyl-3-pyrazolin-5-one]
4 | 106 | 21 | 22 | – | 12 | – | 100 | – | – | CC(C)Oc1ccccc1N1CCN(Cc2c(N)n(C)n(-c3ccccc3)c2=O)CC1 [Example 8, 3-Amino-4-[4-(2-isopropoxyphenyl)piperazin-1-ylmethyl]-2-methyl-1-phenyl-3-pyrazolin-5-one]

Continued, compound first:

Row | Structure (SMILES) | Ki [1] [nM] | Ki [2] [nM] | Ki [3] [nM] | Ki [4] [nM] | Ki [5] [nM] | inhibition at 1 µM ([2]; 10^-6 M, [3H]idazoxan, read-out: % displacement at 10^-6 M, α2D) [%] | inhibition at 1 µM [4] [%] | % displacement at 10^-6 M, α1 ([5]; 10^-6 M, 7-methoxy-[3H]prazosin, 1 µM) [%] | Ki ([5]; hydrochloride) [nM]
5 | Cn1c(N)c(CN2CCN(c3cccc4c3OCCO4)CC2)c(=O)n1-c1ccccc1 [Example 2, 3-amino-4-[4-(1,4-benzodioxan-5-yl)piperazin-1-ylmethyl]-2-methyl-1-phenyl-3-pyrazolin-5-one] | 26 | 307 | 196 | 29 | 401 | – | – | – | –
6 | CCCn1c(N)c(CN2CCN(c3cccc4c3OCCO4)CC2)c(=O)n1-c1ccccc1 [Example 5, 3-Amino-4-[4-(1,4-benzodioxan-5-yl)piperazin-1-ylmethyl]-1-phenyl-2-propyl-3-pyrazolin-5-one] | 16 | 121 | 176 | – | 41 | – | 73 | – | –
7 | C=CCn1c(N)c(CN2CCN(c3cccc4c3OCCO4)CC2)c(=O)n1-c1ccccc1 [Example 6, 2-Allyl-3-amino-4-[4-(1,4-benzodioxan-5-yl)piperazin-1-ylmethyl]-1-phenyl-3-pyrazolin-5-one] | 22 | 111 | 139 | – | 45 | – | 86 | – | –
8 | Nc1c(CN2CCN(c3cccc4c3OCCO4)CC2)c(C2CC2)nn1-c1ccccc1 [Example 10, 5-amino-4-[4-(1,4-benzodioxan-5-yl)piperazin-1-ylmethyl]-3-cyclopropyl-1-phenylpyrazole] | 25 | 162 | 374 | 2 | 31 | – | – | – | –
9 | Nc1nn(-c2ccccc2)c(N)c1CN1CCN(c2cccc3c2OCCO3)CC1 [Example 11, 3,5-diamino-4-[4-(1,4-benzodioxan-5-yl)piperazin-1-ylmethyl]-1-phenylpyrazole] | 16 | 60 | 309 | – | > 500 | – | 85 | – | –
10 | Nc1c(CN2CCN(c3cccc4c3OCCO4)CC2)c(-c2ccccc2)nn1-c1ccccc1 [Example 12, 5-Amino-4-[4-(1,4-benzodioxan-5-yl)piperazin-1-ylmethyl]-1,3-diphenylpyrazole] | 19 | 192 | > 500 | – | 41 | – | 99 | – | –
11 | Cn1nc(C2CC2)c(CN2CCN(c3cccc4c3OCCO4)CC2)c1N [Example 18, 5-Amino-4-[4-(1,4-benzodioxan-5-yl)piperazin-1-ylmethyl]-3-cyclopropyl-1-methylpyrazole 2.3 hydrochloride] | 27 | 69 | – | – | – | – | 98 | – | 204

From patent publication US6114334A, “Piperazine derivatives as therapeutic agents” (Knoll Aktiengesellschaft, priority 1995, dated 2000)
